From US4127714A, “Anthracycline glycosides” (priority 1976, dated 1978)
≈ marks a conversion by molar mass, not a printed value. Structures can show the parent of a compound that is named as a salt.

Legend:
[1] = tested on: animal tumor systems; details: reported in literature; cited from earlier work
[2] = tested on: mouse L1210 leukemia; assay: Prolongation of survival time of CDF1 mice inoculated intraperitoneally with L1210 leukemia cells; assay type: in vivo, mouse (CDF1); details: for inhibitory effects on mouse L1210 leukemia: summary statement in words
Description: Rhodirubin A and B show a marked antitumor activity with low toxicity in experimental animal tests and thus are therapeutically useful in inhibiting the growth of animal tumors. […] For example, CDF1 mice were inoculated intraperitoneally with 1 × 10^6 L1210 cells/mouse and 0.1-0.2 ml. of drug solution then administered intraperitoneally for 10 consecutive days. Observation was carried out for 30 days, and the % of prolongation of survival time to the control mice intraperitoneally administered with physiological saline was as follows: […]

[3] = tested on: B. megaterium NRRL-938; assay: Minimum inhibitory concentration, broth dilution method; assay type: cell-based; details: Priestia megaterium, NRRL938
[4] = Toxicity in experimental animal tests (summary statement); details: summary statement in words
[5] = tested on: Staph. aureus FDA 209P; assay: Minimum inhibitory concentration, broth dilution method; assay type: cell-based; details: Staphylococcus aureus, FDA209P
[6] = tested on: Staph. aureus Smith; assay: as above; assay type: cell-based; details: Staphylococcus aureus
[7] = tested on: Proteus morganii; assay: as above; assay type: cell-based; details: Morganella morganii
[8] = tested on: Candida tropicalis IAM 4942; assay: as above; assay type: cell-based; details: IAM4942
[9] = tested on: B. cereus ATCC 9634; assay: as above; assay type: cell-based; details: Bacillus cereus, ATCC9634
[10] = tested on: solid and ascitic forms of malignant tumors in mammals, e.g. mouse leukemia L1210; assay: Inhibition of growth of solid and ascitic malignant tumors in mammals (summary statement); assay type: in vivo
[11] = tested on: Sarcina lutea ATCC 9341; assay: Minimum inhibitory concentration, broth dilution method; assay type: cell-based; details: Micrococcus luteus, ATCC9341
[12] = Solubility
[13] = tested on: Coryne: bovis; assay: Minimum inhibitory concentration, broth dilution method; assay type: cell-based
[14] = tested on: Mycobacterium smegmatis ATCC 607; assay: as above; assay type: cell-based; details: Mycolicibacterium smegmatis, ATCC607
[15] = tested on: Micrococcus flavus; assay: as above; assay type: cell-based
[16] = in vivo; details: mouse, ip, mice, intraperitoneal injection
Text: The LD50 values upon intraperitoneal injection (in mice) of rhodirubin A and B are as follows: […]

[17] = tested on: Candida albicans IAM 4905; assay: Minimum inhibitory concentration, broth dilution method; assay type: cell-based; details: IAM4905
[18] = tested on: Ps. fluorescens NIHJB-254; assay: as above; assay type: cell-based; details: Pseudomonas fluorescens, NIHJB254
[19] = tested on: B. subtilis ATCC 6633; assay: as above; assay type: cell-based; details: Bacillus subtilis, ATCC6633
[20] = tested on: gram-positive bacteria; assay: Antimicrobial activity (summary statement); assay type: cell-based; details: against gram-positive bacteria
[21] = tested on: mammalian tumor cells; assay: Cytotoxicity to mammalian tumor cells in culture
[22] = in methanol, n-butanol, acetone, ethyl acetate, chloroform, toluene, benzene and dimethylsulfoxide
[23] = in water, n-hexane and petroleum ether

SMILES | MIC [3] [µg/mL] | toxicity [4] | MIC [5] [µg/mL] | MIC [6] [µg/mL] | MIC [7] [µg/mL] | MIC [8] [µg/mL] | inhibitory effects on mouse L1210 leukemia [2] | MIC [9] [µg/mL] | inhibition of growth of malignant tumors [10] | MIC [11] [µg/mL] | Solubility ([12]; in diethyl ether) | Solubility [12, 22] | Solubility [12, 23] | MIC [13] [µg/mL] | MIC [14] [µg/mL] | MIC [15] [µg/mL] | LD50 [16] [mg/kg] | MIC [17] [µg/mL] | MIC [18] [µg/mL] | MIC [19] [µg/mL] | further results
CC(=O)[C@]1(O)Cc2c(O)c3c(c(O)c2[C@@H](O[C@H]2C[C@H](N)[C@H](O)[C@H](C)O2)C1)C(=O)c1c(O)cccc1C3=O [carminomycin] |  |  |  |  |  |  |  |  |  |  |  |  |  |  |  |  |  |  |  |  | activity against several animal tumor systems [1]: active against several animal tumor systems
CCC1(O)CC(OC2CC(N(C)C)C(OC3CC(O)C(OC4CCC(O)C(C)O4)C(C)O3)C(C)O2)c2c(cc3c(c2O)C(=O)c2c(O)ccc(O)c2C3=O)C1C(=O)OC (centres unmarked) [rhodirubin A (HC1 salt)] |  |  |  |  |  |  |  |  |  |  |  |  |  |  |  |  |  |  |  |  | Prolongation of the survival time T/C (%) ([2]; ip, 0.6 mg/kg, 720 h): 102%; Prolongation of the survival time T/C (%) ([2]; ip, 1.25 mg/kg, 720 h): 117%; Prolongation of the survival time T/C (%) ([2]; ip, 2.5 mg/kg, 720 h): 167%; Prolongation of the survival time T/C (%) ([2]; ip, 5 mg/kg, 720 h): 195%; Prolongation of the survival time T/C (%) ([2]; ip, 8.5 mg/kg, 720 h): 121%; Prolongation of the survival time T/C (%) ([2]; ip, 10 mg/kg, 720 h): 87%
CCC1(O)CC(OC2CC(N(C)C)C(OC3CC(O)C(OC4CCC(O)C(C)O4)C(C)O3)C(C)O2)c2c(cc3c(c2O)C(=O)c2c(O)ccc(O)c2C3=O)C1C(=O)OC (centres unmarked) [rhodirubin A] | 0.78 (≈ 0.94 µM) | low toxicity | 1.56 (≈ 1.88 µM) | 0.4 (≈ 0.482 µM) | > 100 | > 100 | marked inhibitory effects | 0.2 (≈ 0.241 µM) | inhibit the growth of solid and ascitic forms of malignant tumors in mammals | 0.4 (≈ 0.482 µM) | slightly soluble | soluble | insoluble | 0.2 (≈ 0.241 µM) | 6.25 (≈ 7.53 µM) | 0.2 (≈ 0.241 µM) | 7.5 to 10 | > 100 | 100 (≈ 120 µM) | 0.78 (≈ 0.94 µM) | antimicrobial activity [20]: possess antimicrobial activity, especially against gram-positive bacteria; antimicrobial activity ([20]; listed as Rhodirubin A): exhibit antimicrobial activity against gram-positive bacteria; cytotoxicity [21]: high cytotoxicity
CCC1(O)CC(OC2CC(N(C)C)C(OC3CCC(OC4CCC(O)C(C)O4)C(C)O3)C(C)O2)c2c(cc3c(c2O)C(=O)c2c(O)ccc(O)c2C3=O)C1C(=O)OC (centres unmarked) [rhodirubin B (HC1 salt)] |  |  |  |  |  |  |  |  |  |  |  |  |  |  |  |  |  |  |  |  | Prolongation of the survival time T/C (%) ([2]; 0.6 mg./kg./day, i.p., 10 consecutive days, observed 30 days, vs physiological saline controls): 107%; Prolongation of the survival time T/C (%) ([2]; 1.25 mg./kg./day, i.p., 10 consecutive days, observed 30 days, vs physiological saline controls): 126%; Prolongation of the survival time T/C (%) ([2]; 2.5 mg./kg./day, i.p., 10 consecutive days, observed 30 days, vs physiological saline controls): 215%; Prolongation of the survival time T/C (%) ([2]; 5 mg./kg./day, i.p., 10 consecutive days, observed 30 days, vs physiological saline controls): 179%; Prolongation of the survival time T/C (%) ([2]; 8.5 mg./kg./day, i.p., 10 consecutive days, observed 30 days, vs physiological saline controls): 160%; Prolongation of the survival time T/C (%) ([2]; 10 mg./kg./day, i.p., 10 consecutive days, observed 30 days, vs physiological saline controls): 104%
CCC1(O)CC(OC2CC(N(C)C)C(OC3CCC(OC4CCC(O)C(C)O4)C(C)O3)C(C)O2)c2c(cc3c(c2O)C(=O)c2c(O)ccc(O)c2C3=O)C1C(=O)OC (centres unmarked) [rhodirubin B] | 1.56 (≈ 1.92 µM) | low toxicity | 1.56 (≈ 1.92 µM) | 0.78 (≈ 0.958 µM) | > 100 | > 100 | marked inhibitory effects | 0.4 (≈ 0.491 µM) | inhibit the growth of solid and ascitic forms of malignant tumors in mammals | 0.78 (≈ 0.958 µM) | slightly soluble | soluble | insoluble | 0.4 (≈ 0.491 µM) | 3.1 (≈ 3.81 µM) | 0.2 (≈ 0.246 µM) | 10 to 12.5 | > 100 | 100 (≈ 123 µM) | 1.56 (≈ 1.92 µM) | antimicrobial activity [20]: possess antimicrobial activity, especially against gram-positive bacteria; antimicrobial activity ([20]; listed as Rhodirubin B): exhibit antimicrobial activity against gram-positive bacteria; cytotoxicity [21]: high cytotoxicity
